Laboratory results reported in US4208417A, “Indole derivatives and their use as anxiolytics” (Pharmindustrie, priority 1978, dated 1980).
Where two headings read alike, the source gives them in different places.

Experiments:
[1] = Acute toxicity in mice (LD50); assay type: in vivo; conditions: mouse, in vivo
Description: (§1) The following Table 2 contains values already given in U.S. Pat. No. 4,064,255 and supplies additional values obtained according to the same procedure.

[2] = molecular target: benzodiazepine receptor (^3 H-diazepam binding sites, rat brain membranes)
Description: This efficacy is measured by Ki values in micro moles calculated by using the equation:
C=the concentration of ^3 H-diazepam,
KD =the affinity constant=2,74 μM, and
IC50 =the concentration causing 50% inhibition of ^3 H-diazepam binding.

Mice = experiment: Acute toxicity in mice (LD50); assay type: in vivo
Description: as §1

[3] = iv, I.V., read-out: Acute toxicity LD50, I.V.
[4] = po, orally, read-out: Acute toxicity LD50, orally

Row | Compound | LD50 [1, 3] | LD50 [1, 4] | Ki [2] | Acute toxicity LD50, I.V. (Mice) | Acute toxicity LD50, orally (Mice)
1 | O=C(CC1CCNCC1)c1c[nH]c2ccccc12 [Example 1, Indolyl-3-(piperidyl-4-methyl)ketone] | 47 mg/kg | 300 to 900 mg/kg | 43 µM | – | –
2 | COc1ccc2[nH]cc(CCC3CCNCC3)c2c1 [Example 8, [(Methoxy-5 indolyl-3)-2 ethyl]-4 piperidine] | 41 mg/kg | 675 mg/kg | 40 µM | – | –
3 | Cn1cc(CCC2CCNCC2)c2ccccc21 [Example 9, [(Methyl-1 indolyl-3)-2 ethyl]-4 piperidine] | – | – | 90 µM | 44 mg/kg | 225 mg/kg
4 | c1ccc2c(CCC3CCNCC3)c[nH]c2c1 [Example 10, [(Indolyl-3)-2 ethyl]-4 piperidine] | – | – | 64 µM | 60 mg/kg | 600 mg/kg
5 | c1ccc2c(CC3CCNCC3)c[nH]c2c1 [Example 11, (Indolyl-3 methyl)-4 piperidine] | – | – | 90 µM | 57 mg/kg | 225 mg/kg
6 | Clc1ccc2[nH]cc(CCC3CCNCC3)c2c1 [Example 12, [(Chloro-5 indolyl-3)-2 ethyl]-4 piperidine] | 85 mg/kg | 625 mg/kg | 37 µM | – | –
7 | c1ccc2c(CCCC3CCNCC3)c[nH]c2c1 [Example 13, [(Indolyl-3)-3 propyl]-4 piperidine] | 29 mg/kg | 600 mg/kg | 70 µM | – | –
8 | c1ccc(Cn2cc(CCC3CCNCC3)c3ccccc32)cc1 [Example 14, [(Benzyl-1 indolyl-3)-2 ethyl]-4 piperidine] | 33 mg/kg | 525 mg/kg | 33 µM | – | –
